# Experimental data: patent US20150231199A1, “PEPTIDES AND THEIR USES” (priority 2012, published 2015)
# Read-outs that look alike come from different tables or passages of the source. Positions of bridges follow the written chain, without caps; N, C: chain ends. Residues, ends and D or L forms follow the SMILES beside them. Chains are numbered I, II in the order given. *: point of attachment. Myristoyl = CCCCCCCCCCCCCC(=O)*; Lauroyl = CCCCCCCCCCCC(=O)*
# What was measured:
# [1] = test system: red blood cells (RBCs) of New Zealand white rabbits; experiment: in vitro; assay type: cell-based, rabbit
# Procedure: Fresh red blood cells (RBCs) of New Zealand white rabbits were used for this experiment. The RBCs obtained were centrifuged at 3000 rpm for 10 min. Supernatant was removed and washed twice with sterile PBS Buffer (20 mM, 100 mM NaCl, pH 7). The RBCs were further diluted to 8% stock solution in PBS. Peptides were dissolved in PBS with desired stock concentrations. When compounds were mixed with RBCs, desired concentration of 4% RBCs was obtained. For C14V2D and C16V2D, they were dissolved in Dimethylformamide ([…]; DMF) with desired stock concentrations. When compounds were mixed with RBCs, desired concentration of 4% RBCs and 0.5% DMF was obtained. DMF concentration of <1% was used as it had negligible hemolytic activity on RBCs. The mixtures were added to 1.5 mL centrifuge tubes and incubated at 37° C. for 1 h. After incubation, the blood was centrifuged at 3000 rpm for 3 min at 4° C. 100 μL of the supernatant was transferred into transparent 96-well plate. The absorbance was measured at 576 nm using a microplate reader (TECAN Infinite 200M Pro). 2% Triton X-100 was used as positive control. PBS was used as negative controls. The amount of hemoglobin released was calculated using the following equation: […]
# Staphylococcus aureus = assay type: cell-based
# Procedure: (§1) V2-dimer and all lipopeptides (FIG. 1A) used in this study were purchased from Mimotopes. All peptides were prepared by dissolving in sterile water to make 1000 μg/mL stock solutions. Minimum Inhibitory Concentration (MIC) determination was carried out in Mueller Hinton Broth (MHB) using the broth macro-dilution method as described by the Clinical and Laboratory Standards Institute (CLSI). Then, cation-adjusted MHB (CA-MHB) was used to prepare serial two fold dilutions of the compounds in test tubes. The concentration of the inoculums suspension was also adjusted to approximately 5×10^5 Colony Forming Units (CFU)/mL using MHB. Bacteria were incubated with the compounds for 24 hours at 35° C. prior to reading. In this study, Gram-positive strains used were Staphylococcus aureus DM4001 and Methicillin-resistant Staphylococcus aureus (MRSA) DM9808. Gram-negative strains used were Klebsiella pneumoniae DM4299, Pseudomonas aeruginosa ATCC23155 and Escherichia coli ATCC27922.
# (§2) Methods used are as described in Example 1 above.
# Pseudomonas aeruginosa = assay type: cell-based
# Procedure: as §1, §2
# [2] = test system: Methicillin-resistant Staphylococcus aureus (MRSA); assay type: cell-based
# Procedure: as §1, §2
# [3] = test system: Klebsiella pneumoniae DM4299; assay type: cell-based
# Procedure: as §1
# [4] = test system: Escherichia coli ATCC27922; assay type: cell-based
# Procedure: as §1
# P. aeruginosa [5] = experiment: Time-kill kinetics assay; assay type: cell-based, Pseudomonas aeruginosa; conditions: both Pseudomonas strains at 1× and 2×MIC; compared with B2088; FIG. 13
# Procedure: The kinetics of bactericidal action was performed by the assay reported before. Briefly, few colonies of overnight grown P. aeruginosa strains were collected from tryptic soy agar plate and suspended US pharmacopeia phosphate buffer (pH 7.2). The suspension was adjusted to an initial inoculum of 10^6 CFU/mL and incubated with various concentrations of B2088 and B2088—99 at 35° C. 0.1 mL aliquots were withdrawn at various time intervals, diluted […] fold using the same buffer, plated on tryptic soy agar plates and incubated at 35° C. The colonies were counted after 24 h incubation and expressed as CFU/mL. Buffer without peptides served as a positive control and % bacterial viability is estimated using the following equation:
# Bacterial viability=1−(CFU/mL)peptide/(CFU/mL)control*100
# P. aeruginosa [6] = experiment: Bacterial viability assay (ED50); assay type: cell-based, Pseudomonas aeruginosa; conditions: P. aeruginosa ATCC 9027 and ATCC 27853; FIG. 12
# Procedure: Cell viability was conducted for two Gram-negative bacteria (Pa 9027 and Pa 27853). The cultures were grown overnight in TS agar and a few isolated colonies were inoculated to achieve a turbidity equivalent to 0.5 McFarland standard. The cell concentration was adjusted to […] with 10 mM phosphate buffer and separated into different tubes to get final concentration of 10^5 CFU/ml. The peptides were added to the individual tubes to obtain concentrations of ⅛ MIC, ¼ MIC, ½ MIC, 1 MIC, 2 MIC and 4 MIC. The tubes were incubated at 37° C. for 22 h. Serial dilution was performed and 100 uL of the suspension was aliquot into MHA plate. The plates were incubated for 24 h at 37° C. for colony counting. Positive control was performed at 0 h and 22 h.
# Klebsiella pneumoniae = assay type: cell-based
# Procedure: The minimum inhibitory concentration (MIC) was determined using the broth microdilution method. Bacterial cells (shown in Table 6) are grown in Mueller Hinton Broth (MHB) overnight. 100 μL of adjusted inoculum in MHB is added to 100 μL of each dilution of peptide or antibiotics dissolved in the broth, so as to yield a final cell density of 10^5 to 10^6 cfu/mL in each well. The plates were incubated at 35° C. for 24 h and the absorbance at 600 nm (OD600) was monitored every 30 minutes. A positive control well contained the broth and organisms (no peptides/antibiotics), and a negative control tube contains only the broth. The MIC of peptides for each clinical isolate or reference organism was recorded as the lowest concentration of peptide/antibiotic that inhibited visible growth of the test organism. To study the effect of Mg2+ on MIC of branched peptides, the concentration of MgCl2 was varied in MHB and the MIC was determined as before.
# P. aeruginosa ATCC 9027 = experiment: Outer membrane (OM) permeability assay (NPN); assay type: cell-based, Pseudomonas aeruginosa; conditions: FIG. 14
# Procedure: To probe the OM permeability of peptides, a membrane impermeable probe N-phenyl-1-naphthyl amine (NPN) was used in the present study. The overnight cultured P. aeruginosa ATCC 9027 cells were harvested by centrifugation at 3000 rpm, 4° C. The resulting pellet was washed twice and resuspended in 5 mM HEPES buffer (pH 7.2) to OD600 of 0.4. The cells were placed in a 10 mm stirred cuvette and NPN was added to a final concentration of 10 μM. Appropriate concentrations of B2088 was added and the increase in fluorescence intensity was monitored on a Quanta Master fluorescence spectrophotometer (Photon Technology International, New Jersey, USA). The excitation and emission wavelengths were set at 350 and 410 nm with slid widths at 2 and 5 nm, respectively. The % NPN uptake was calculated relative to increase in NPN fluorescence intensity after the addition of 50 μM polymyxin B.
# in vitro [7] = assay type: cell-based; conditions: human
# Procedure: The cytotoxicity of individual compounds screened was determined by the lactate dehydrogenase (LDH) assay. In brief, human corneal fibroblast cells were plated at a density of 10,000 cells per well in a 96-well opaque white plate (SPL Life Sciences Inc). Test compounds of various concentrations and controls were added to appropriate wells such that the final volume is 100 μl in each well. After 4 hours of exposure to the test compounds, the plates were removed from 37° C. incubator and equilibrated to 22° C. for 30 minutes. One hundred microliters of Cyto-TOX One reagent (Promega Inc. USA) was added to each well and the LDH assay was performed according to manufacturer's instructions. Fluorescence was assessed at an excitation wavelength of 560 nm and an emission wavelength of 590 nm using a micro-plate reader (Tecan Infinite 200 Pro, Switzerland). The cells exposed to 1% Triton X-100 were used as a positive control and treated as maximum releasing of LDH. The percent specific cytotoxicity of each compound was determined using the formula below (I=intensity):
# % Cytotoxicity=[(Iexperiments)−(Inegative controls)]/[Ipositive controls)−(Inegative controls)]×100
# in vitro [8] = assay type: cell-based; conditions: human; remark: listed apart in the source
# Procedure: Cells were plated at a density of 10,000 cells per well in a 96-well opaque white plate (SPL Life Sciences Inc. Korea). Test compounds of various concentrations and controls were added to appropriate wells such that the final volume is 100 μl in each well. After 4 hours of exposure to the test compounds, the plates were removed from 37° C. incubator and equilibrated to 22° C. for 30 minutes. One hundred microliters of CellTiter-Glo reagent (Promega Inc. USA) was added to each well and the ATP assay was performed according to manufacturer's instructions. Luminescence was assessed using a micro-plate reader (Tecan Infinite 200 Pro, Switzerland). The cells exposed to 1% Triton X-100 were used as a positive control. The percent cell viable of each compound was determined using the formula below (L=Luminescence detected):
# % Viability=[(Lnegative controls)−(Lexperiments)]/[(Lnegative controls)−(Lpositive controls)]×100
HC10 [1],MIC (Staphylococcus aureus),MIC (Pseudomonas aeruginosa),MIC [2],MIC [3],MIC [4],MIC (Klebsiella pneumoniae; 24 h),"HC10 ([1]; red cells of rabbit, 1 h)",MIC (Klebsiella pneumoniae),Structure (SMILES),kill kinetics (P. aeruginosa [5]),ED50 compared with B2088 (P. aeruginosa [6]),PC50 (concentration for 50% increase in NPN fluorescence intensity) compared with B2088 (P. aeruginosa ATCC 9027),CC50 at 4 h (in vitro [7]),CC50 at 4 h (in vitro [8])
542.8 ± 53.0 µg/mL,4.71 µM,4.71 µM,4.71 µM,4.71 µM,4.71 µM,,,,"CCCCCCCCCCCC(=O)N[C@@H](CCCNC(=N)N)C(=O)NCC(=O)N[C@@H](CCCNC(=N)N)C(=O)N[C@@H](CCCCN)C(=O)N[C@H](C(=O)N[C@H](C(=O)N[C@@H](CCCNC(=N)N)C(=O)N[C@@H](CCCNC(=N)N)C(=O)NCCCC[C@H](NC(=O)[C@H](CCCNC(=N)N)NC(=O)[C@H](CCCNC(=N)N)NC(=O)[C@@H](NC(=O)[C@@H](NC(=O)[C@H](CCCCN)NC(=O)[C@H](CCCNC(=N)N)NC(=O)CNC(=O)[C@H](CCCNC(=N)N)NC(=O)CCCCCCCCCCC)C(C)C)C(C)C)C(=O)N[C@@H](CCCCN)C(=O)O)C(C)C)C(C)C [Peptide C12-V2D, (C11H23—CO—NH—RGRKVVRR)2KK] (I: Lauroyl-RGRKVVRRKK-OH / II: Lauroyl-RGRKVVRR; amide I:9-II:C)",,,,,
^b251.82 ± 5.2 ug/mL,2.30 µM,2.30 µM,2.30 µM,9.22 µM,1.15 µM,,,,"CCCCCCCCCCCCCC(=O)N[C@@H](CCCNC(=N)N)C(=O)NCC(=O)N[C@@H](CCCNC(=N)N)C(=O)N[C@@H](CCCCN)C(=O)N[C@H](C(=O)N[C@H](C(=O)N[C@@H](CCCNC(=N)N)C(=O)N[C@@H](CCCNC(=N)N)C(=O)NCCCC[C@H](NC(=O)[C@H](CCCNC(=N)N)NC(=O)[C@H](CCCNC(=N)N)NC(=O)[C@@H](NC(=O)[C@@H](NC(=O)[C@H](CCCCN)NC(=O)[C@H](CCCNC(=N)N)NC(=O)CNC(=O)[C@H](CCCNC(=N)N)NC(=O)CCCCCCCCCCCCC)C(C)C)C(C)C)C(=O)N[C@@H](CCCCN)C(=O)O)C(C)C)C(C)C [Peptide C14-V2D, (C13H23—CO—NH—RGRKVVRR)2KK] (I: Myristoyl-RGRKVVRRKK-OH / II: Myristoyl-RGRKVVRR; amide I:9-II:C; N-terminus and C-terminus assumed)",,,,,
,5.66 µM,2.94 µM,5.89 µM,2.94 µM,,2.9 µM,,,"N=C(N)NCCC[C@H](NC(=O)CNC(=O)CNC(=O)[C@H](CCCCN)NC(=O)[C@H](CCCNC(=N)N)NC(=O)CNC(=O)[C@@H](N)CCCNC(=N)N)C(=O)N[C@@H](CCCNC(=N)N)C(=O)NCCCC[C@H](NC(=O)[C@H](CCCNC(=N)N)NC(=O)[C@H](CCCNC(=N)N)NC(=O)CNC(=O)CNC(=O)[C@H](CCCCN)NC(=O)[C@H](CCCNC(=N)N)NC(=O)CNC(=O)[C@@H](N)CCCNC(=N)N)C(=O)N[C@@H](CCCCN)C(=O)O [Peptide G2D, (RGRKGGRR)2KK] (I: H-RGRKGGRRKK-OH / II: H-RGRKGGRR; amide I:9-II:C; N-terminus and C-terminus assumed)",faster kill kinetics,two times lower,higher,,
,5.46 µM,5.46 µM,2.73 µM,5.46 µM,2.73 µM,,>2000 µg/mL,2.7 µM,"CC(C)[C@H](NC(=O)[C@H](CCCCN)NC(=O)[C@H](CCCNC(=N)N)NC(=O)CNC(=O)[C@@H](N)CCCNC(=N)N)C(=O)N[C@H](C(=O)N[C@@H](CCCNC(=N)N)C(=O)N[C@@H](CCCNC(=N)N)C(=O)NCCCC[C@H](NC(=O)[C@H](CCCNC(=N)N)NC(=O)[C@H](CCCNC(=N)N)NC(=O)[C@@H](NC(=O)[C@@H](NC(=O)[C@H](CCCCN)NC(=O)[C@H](CCCNC(=N)N)NC(=O)CNC(=O)[C@@H](N)CCCNC(=N)N)C(C)C)C(C)C)C(=O)N[C@@H](CCCCN)C(=O)O)C(C)C [Peptide V2D, (RGRKVVRR)2KK] (I: H-RGRKVVRRKK-OH / II: H-RGRKVVRR; amide I:9-II:C)",,,,> 1000 µM,> 1000 µM
